Counter-ions that a name gives are not always drawn. Like-named read-outs stand apart in the source and are kept apart here.
Experiments:
[1] = target: T1, recombinant MTHFD2 protein (Homo sapiens, UniProt P13995); assay: MTHFD2 dehydrogenase assay; type: biochemical
T1 construct: containing recombinant MTHFD2 protein
T1 sequence (P13995 36-350): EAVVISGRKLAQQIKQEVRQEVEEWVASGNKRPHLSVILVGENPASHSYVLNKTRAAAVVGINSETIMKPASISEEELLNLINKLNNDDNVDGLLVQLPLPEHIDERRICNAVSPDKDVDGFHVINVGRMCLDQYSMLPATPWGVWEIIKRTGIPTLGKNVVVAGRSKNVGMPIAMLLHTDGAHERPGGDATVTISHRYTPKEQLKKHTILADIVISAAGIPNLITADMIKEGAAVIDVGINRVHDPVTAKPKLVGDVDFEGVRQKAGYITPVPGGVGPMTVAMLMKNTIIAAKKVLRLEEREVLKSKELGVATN

[2] = target: T2, recombinant MTHFD1 protein (dehydrogenase domain, alone) (Homo sapiens, UniProt P11586); assay: MTHFD1 dehydrogenase assay; type: biochemical
T2 construct: recombinant MTHFD1 protein (dehydrogenase domain, alone)
T2 sequence (P11586 2-291 limits assumed): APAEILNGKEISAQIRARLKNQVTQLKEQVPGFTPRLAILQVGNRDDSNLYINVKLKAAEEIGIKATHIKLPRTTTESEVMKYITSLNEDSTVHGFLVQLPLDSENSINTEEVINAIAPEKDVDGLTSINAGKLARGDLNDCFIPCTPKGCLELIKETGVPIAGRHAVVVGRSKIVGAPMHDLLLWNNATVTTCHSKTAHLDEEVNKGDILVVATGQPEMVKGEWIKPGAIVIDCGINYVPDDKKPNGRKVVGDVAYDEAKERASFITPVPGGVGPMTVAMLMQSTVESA

MDA-MB-231 luc cells = assay: Growth inhibition test using MDA-MB-231 luc cells; type: cell-based, human
[3] = 200 μM NAD, room temperature 30 minutes, absorbance 355 nm
[4] = 165.4 μM NADP, room temperature 30 minutes, absorbance 355 nm
[5] = human breast cancer MDA-MB-231 luc, Day 3, cell-titer Glo, Day 0 value subtracted, read-out: GI50

IC50 [2, 4] [nM]	GI50 (MDA-MB-231 luc cells; [5]) [nM]	SMILES	IC50 [1, 3] [nM]	GI50 (MDA-MB-231 luc cells; Homo sapiens, MDA-MB-231) [nM]	IC50 [1] [nM]	IC50 [2] [nM]
220	17	CCS(=O)(=O)Nc1ccc(C(=O)N2CCc3c(c(=O)oc4c(C)c(N5CCN(C)[C@@H](C)C5)cc(C)c34)C2)cc1OC(F)(F)F [Example 10, N-[4-({8-[(3S)-3,4-Dimethylpiperazin-1-yl]-7,10-dimethyl-5-oxo-1,5-dihydro-2H-chromeno[3,4-c]pyridin-3(4H)-yl}carbonyl)-2-(trifluoromethoxy)phenyl]ethanesulfonamide]	2.7	–	–	–
–	–	Cc1c(N2C[C@@H](C)N(C)[C@@H](C)C2)ccc2c3c(c(=O)oc12)CN(C(=O)c1ccc(NS(C)(=O)=O)c(Cl)c1)CC3 [Example 14, N-[2-Chloro-4-({7-methyl-5-oxo-8-[(3R,5S)-3,4,5-trimethylpiperazin-1-yl]-1,5-dihydro-2H-chromeno[3,4-c]pyridin-3(4H)-yl}carbonyl)phenyl]methanesulfonamide]	37	780	–	–
–	–	Cc1c(N2CCN(C)[C@@H](C)C2)ccc2c3c(c(=O)oc12)CN(C(=O)c1ccc(NS(C)(=O)=O)c(OC(F)(F)F)c1)CC3 [Example 5, N-[4-({8-[(3S)-3,4-Dimethylpiperazin-1-yl]-7-methyl-5-oxo-1,5-dihydro-2H-chromeno[3,4-c]pyridin-3(4H)-yl}carbonyl)-2-(trifluoromethoxy)phenyl]methanesulfonamide]	–	140	–	–
2200	1100	Cc1c(N2CCN(C)CC2)ccc2c3c(c(=O)oc12)CN(C(=O)c1ccc(NS(=O)(=O)C2CC2)c(Cl)c1)CC3 [Example 2, N-(2-Chloro-4-{[7-methyl-8-(4-methylpiperazin-1-yl)-5-oxo-1,5-dihydro-2H-chromeno[3,4-c]pyridin-3(4H)-yl]carbonyl}phenyl)cyclopropanesulfonamide]	28	–	–	–
–	–	Cc1c(N2CCN(C)[C@@H](C)C2)cc(C)c2c3c(c(=O)oc12)CN(C(=O)c1ccc(NS(C)(=O)=O)c(OC(F)(F)F)c1)CC3 [Example 8, N-[4-({8-[(3S)-3,4-Dimethylpiperazin-1-yl]-7,10-dimethyl-5-oxo-1,5-dihydro-2H-chromeno[3,4-c]pyridin-3(4H)-yl}carbonyl)-2-(trifluoromethoxy)phenyl]methanesulfonamide]	–	45	2.6	200
–	–	Cc1c(N2CCN(C)C(C)(C)C2)ccc2c3c(c(=O)oc12)CN(C(=O)c1ccc(NS(C)(=O)=O)c(OC(F)(F)F)c1)CC3 [Example 12, N-[4-{[7-Methyl-5-oxo-8-(3,3,4-trimethylpiperazin-1-yl)-1,5-dihydro-2H-chromeno[3,4-c]pyridin-3(4H)-yl]carbonyl}-2-(trifluoromethoxy)phenyl]methanesulfonamide]	–	66	75	710
–	–	Cc1c(N2CCN(C)[C@@H](C)C2)cc(C)c2c3c(c(=O)oc12)CN(C(=O)c1ccc(NS(C)(=O)=O)c(Cl)c1)CC3 [Example 7, N-[2-Chloro-4-({8-[(3S)-3,4-dimethylpiperazin-1-yl]-7,10-dimethyl-5-oxo-1,5-dihydro-2H-chromeno[3,4-c]pyridin-3(4H)-yl}carbonyl)phenyl]methanesulfonamide]	–	100	4.4	560
–	–	Cc1c(N2CCN(C)[C@@H](C)C2)ccc2c3c(c(=O)oc12)CN(C(=O)c1ccc(NS(C)(=O)=O)c(C(F)(F)F)c1)CC3 [Example 6, N-[4-({8-[(3S)-3,4-Dimethylpiperazin-1-yl]-7-methyl-5-oxo-1,5-dihydro-2H-chromeno[3,4-c]pyridin-3(4H)-yl}carbonyl)-2-(trifluoromethyl)phenyl]methanesulfonamide]	–	210	6.4	1500
–	–	Cc1c(N2CCN(C)[C@@H](C)C2)ccc2c3c(c(=O)oc12)CN(C(=O)c1ccc(NS(C)(=O)=O)c(Cl)c1)CC3 [Example 4, N-[2-Chloro-4-({8-[(3S)-3,4-dimethylpiperazin-1-yl]-7-methyl-5-oxo-1,5-dihydro-2H-chromeno[3,4-c]pyridin-3(4H)-yl}carbonyl)phenyl]methanesulfonamide]	9.3	200	–	–
–	–	CCS(=O)(=O)Nc1ccc(C(=O)N2CCc3c(c(=O)oc4c(C)c(N5CCN(C)[C@@H](C)C5)ccc34)C2)cc1OC(F)(F)F [Example 9, N-[4-({8-[(3S)-3,4-Dimethylpiperazin-1-yl]-7-methyl-5-oxo-1,5-dihydro-2H-chromeno[3,4-c]pyridin-3(4H)-yl}carbonyl)-2-(trifluoromethoxy)phenyl]ethanesulfonamide]	–	120	4.7	400
–	–	CC[C@H]1CN(c2ccc3c4c(c(=O)oc3c2C)CN(C(=O)c2ccc(NS(C)(=O)=O)c(OC(F)(F)F)c2)CC4)CCN1C [Example 11, N-[4-({8-[(3S)-3-Ethyl-4-methylpiperazin-1-yl]-7-methyl-5-oxo-1,5-dihydro-2H-chromeno[3,4-c]pyridin-3(4H)-yl}carbonyl)-2-(trifluoromethoxy)phenyl]methanesulfonamide]	–	120	5.1	360
–	–	Cc1c(N2CCN(C)CC2)ccc2c3c(c(=O)oc12)CN(C(=O)c1ccc(NS(C)(=O)=O)c(Cl)c1)CC3 [Example 1, N-(2-chloro-4-{[7-methyl-8-(4-methylpiperazin-1-yl)-5-oxo-1,5-dihydro-2H-chromeno[3,4-c]pyridin-3(4H)-yl]carbonyl}phenyl)methanesulfonamide]	48	940	–	–
–	–	Cc1c(N2CCN(C)CC2)ccc2c3c(c(=O)oc12)CN(C(=O)c1ccc(NS(C)(=O)=O)c(OC(F)(F)F)c1)CC3 [Example 3, N-[4-{[7-Methyl-8-(4-methylpiperazin-1-yl)-5-oxo-1,5-dihydro-2H-chromeno[3,4-c]pyridin-3(4H)-yl]carbonyl}-2-(trifluoromethoxy)phenyl]methanesulfonamide]	21	380	–	–

SMILES	IC50 [2, 4] [nM]	GI50 (MDA-MB-231 luc cells; [5]) [nM]	IC50 [1, 3] [nM]	GI50 (MDA-MB-231 luc cells; Homo sapiens, MDA-MB-231) [nM]	IC50 [1] [nM]	IC50 [2] [nM]
Cc1c(N2CCN[C@@H](C)C2)ccc2c3c(c(=O)oc12)CN(C(=O)c1ccc(NS(C)(=O)=O)c(OC(F)(F)F)c1)CC3 [Example 13, N-[4-({7-Methyl-8-[(3S)-3-methylpiperazin-1-yl]-5-oxo-1,5-dihydro-2H-chromeno[3,4-c]pyridin-3(4H)-yl}carbonyl)-2-(trifluoromethoxy)phenyl]methanesulfonamide hydrochloride]	900	–	7.8	260	–	–

Source: US10774087B2, “Sulfonamide derivative having coumarin skeleton” (Daiichi Sankyo Company, Limited, priority 2016, dated 2020)
